Experimental data published in paper PMC8909834, “An Orally Bioavailable and Highly Efficacious Inhibitor of CDK9/FLT3 for the Treatment of Acute Myeloid Leukemia” (Cancers, 2022).

Tests used:
[1] = Maximum tolerated dose in non-tumor bearing mice; assay type: in vivo
Description: In vivo efficacy of CDDD11-8 against AML xenografts in mice. The maximum tolerated dose (MTD) of CDDD11-8 was determined in non-tumor bearing female BALB/c nude (nu/nu) mice (n = 3). […] Our proposed maximum dose of CDDD11-8 was 150 mg/kg once daily for seven days. […] All the animals received 28 doses of vehicle or CDDD11-8 at 75 or 125 mg/kg strength. […] The tumor regression was maintained over the dosing period. On day 29, the tumors in the 75 mg/kg treated group had recommenced growth to variable degrees (Supplementary Table S3). […] On day 29, one and three mice from the 75 and 125 mg/kg CDDD11-8 treated groups, respectively, had unmeasurable tumor size (zero tumor volume).

[2] = Dissociation constant by PH metric assay; assay type: physicochemical
[3] = Aqueous solubility by turbidimetric method; assay type: physicochemical; conditions: aqueous medium (not further specified), kinetic from dmso stock
MOLM-13 cells = assay: Detection of apoptosis (annexin V/PI assay); assay type: cell-based; conditions: MOLM-13, 1 µM
Description: (§1) Detection of apoptosis and cell cycle analysis. Detection of apoptosis and cell cycle analysis were performed as described previously. Cells (1 × 10^5 cells/mL) were seeded into a six-well plate (Corning) and incubated overnight at 37 °C, 5% CO2 prior to incubation with different concentrations of CDDD11-8 or control (0.1% final DMSO concentration) for 6, 24, or 72 h. For washout experiments, cells were incubated with compounds for 6 h, then washed three times with 1 × PBS interspersed with centrifugation at 300× g for 5 min to remove compound. After incubation at 37 °C under 5% CO2, cells were centrifuged at 300× g for 5 min to form a pellet, washed with PBS, and incubated with Annexin V/PI (Becton Dickenson, Franklin Lakes, NJ, USA) for 15 min in the dark. For cell cycle analysis, cells were fixed with 70% ethanol (v/v, 4 °C) and incubated in the dark with cell cycle staining solution (50 µg/mL PI, 0.1 mg/mL RNase A, 0.05% Triton X-100) for 1.5 h. Samples were analyzed using a CytoFlex flow cytometer (Beckman Coulter, Brea, CA, USA). Data were analyzed with CytExpert software version 2.1 (Beckman Coulter, Brea, CA, USA).

MV4-11 cells = assay: Detection of apoptosis (annexin V/PI assay); assay type: cell-based; conditions: MV4-11, 1 µM
Description: as §1

THP-1 cells = assay: Detection of apoptosis (annexin V/PI assay); assay type: cell-based; conditions: apoptosis seen at 1.5 µM and 24 and 72 h
Description: as §1

TAOK1 = target: T1, TAOK1 (Homo sapiens, UniProt Q7L7X3); assay: Kinase Hotspot radiolabel assay; assay type: biochemical; conditions: read-out: % Residual Activity
T1 construct: purchased Reaction Biology Corporation (Kinase HotSpot)
T1 sequence (Q7L7X3 whole entry): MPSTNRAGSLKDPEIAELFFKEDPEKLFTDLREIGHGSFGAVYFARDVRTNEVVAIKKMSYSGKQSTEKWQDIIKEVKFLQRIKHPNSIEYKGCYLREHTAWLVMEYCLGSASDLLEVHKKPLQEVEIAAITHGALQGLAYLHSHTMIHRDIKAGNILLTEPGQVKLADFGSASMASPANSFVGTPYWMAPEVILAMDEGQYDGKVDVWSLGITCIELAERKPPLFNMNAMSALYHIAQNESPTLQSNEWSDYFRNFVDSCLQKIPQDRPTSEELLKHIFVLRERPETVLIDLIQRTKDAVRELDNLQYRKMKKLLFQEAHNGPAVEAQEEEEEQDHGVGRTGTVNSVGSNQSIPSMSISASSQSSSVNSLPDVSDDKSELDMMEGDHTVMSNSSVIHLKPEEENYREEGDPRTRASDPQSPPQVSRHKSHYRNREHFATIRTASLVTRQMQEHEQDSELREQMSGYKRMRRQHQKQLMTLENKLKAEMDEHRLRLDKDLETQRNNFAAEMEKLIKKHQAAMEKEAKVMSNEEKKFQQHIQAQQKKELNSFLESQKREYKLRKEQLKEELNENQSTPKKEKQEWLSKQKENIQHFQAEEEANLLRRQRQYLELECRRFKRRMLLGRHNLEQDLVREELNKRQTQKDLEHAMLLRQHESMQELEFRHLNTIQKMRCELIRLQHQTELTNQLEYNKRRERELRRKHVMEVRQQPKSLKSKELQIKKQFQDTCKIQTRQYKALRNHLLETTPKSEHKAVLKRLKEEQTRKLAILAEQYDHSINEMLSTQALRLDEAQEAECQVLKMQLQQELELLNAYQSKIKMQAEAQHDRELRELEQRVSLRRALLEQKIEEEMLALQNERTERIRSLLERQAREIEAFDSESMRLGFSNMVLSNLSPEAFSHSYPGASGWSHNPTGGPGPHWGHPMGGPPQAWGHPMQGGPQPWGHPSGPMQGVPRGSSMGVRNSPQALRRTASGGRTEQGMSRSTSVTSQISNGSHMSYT

## Cc1cnc(N[C@H]2CC[C@H](N)CC2)nc1-c1cnc2ccc(-c3ccccc3)cn12 [CDDD11-8]
[1]; female, BALB/c nude (nu/nu), mouse, in vivo, oral, once daily for seven days
  MTD at 7 days: 150 mg/kg
[1]; oral 200 mg/kg, one mouse after five days, the rest after seven days
  body weight loss: > 15%
[1]; up to oral 150 mg/kg once daily for 7 days
  clinical signs of toxicity / weight loss: no overt clinical signs of toxicity or significant weight loss
[2]; first of three values
  pKa: 2.75
[2]; second of three values
  pKa: 4.95
[2]; third of three values
  pKa: 9.89
[3]
  solubility: > 100 µM
MOLM-13 cells; 6 h
  apoptotic (Annexin V-positive) cells: 86%
MOLM-13 cells; 6 h then 24 h without compound
  apoptotic cells after washout: 61%
MV4-11 cells; 6 h
  apoptotic (Annexin V-positive) cells: 51%
MV4-11 cells; 6 h then 24 h without compound
  apoptotic cells after washout: 28%
THP-1 cells
  induction of apoptosis: less impact
TAOK1
  remaining activity at 1 µM: 45.5%
